In patent US11702422B2, “Imidazopyridazines as modulators of IL-17” (Janssen Pharmaceutica NV, priority 2020, dated 2023):
pIC50: −log10 of the molar value.

What was measured:
[1] = molecular target: IL-17A(FLAG-Tagged): IL-17RA(His-Tagged) (Homo sapiens, UniProt Q16552, K93Q); experiment: IL-17A(FLAG-Tagged): IL-17RA(His-Tagged) Binding Disruption Eu-HTRF Assay; details: IL-17A/IL-17RA binding disruption, simple average if tested more than once
Summary of the method: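 IC50 comes from a one-site competition fit of the HTRF 665/620 nm ratio. Compound dilutions (2-fold, 22 points) were held 1 h rt with FLAG-tagged IL-17A dimer, then His-tagged IL-17RA plus Eu-cryptate anti-FLAG and D2 anti-His antibodies were added for 2 h rt.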

[2] = test system: IL-17A-induced G-CSF production in human normal keratinocyte (NHK); experiment: NHK Assay: IL-17A-induced G-CSF production in human normal keratinocytes; format: cell-based; details: 24 h, adult normal human keratinocytes, IL-17A 5 ng/mL, simple average if tested more than once
Summary of the method: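 Titrated compound plus recombinant human IL-17A (pre-incubated 1 h, rt) were applied to adult human keratinocytes at 5 ng/mL cytokine, 0.2% DMSO. Cultures ran 24 h at 37° C, and supernatant G-CSF was measured by HTRF to derive IC50.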

Sequence of UniProt Q16552 (Q16552 with tags, fused parts or gaps K93Q): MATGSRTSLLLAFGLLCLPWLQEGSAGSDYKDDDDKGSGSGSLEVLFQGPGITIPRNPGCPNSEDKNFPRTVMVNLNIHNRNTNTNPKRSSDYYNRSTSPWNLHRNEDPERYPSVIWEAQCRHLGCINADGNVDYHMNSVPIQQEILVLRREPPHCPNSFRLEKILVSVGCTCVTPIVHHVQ

Row | pIC50 [1] | SMILES | pIC50 ([2]; Homo sapiens, Keratinocyte) | pIC50 [2]
1 | 6.77 | CC(C)n1nccc1C(=O)N[C@H](c1cn2ncc([C@H](NC(=O)CO[C@@H](C)C(F)(F)F)C3CC3)cc2n1)C1CCC(F)(F)CC1 (single isomer, unassigned) [Example 310] | 6.66 | –
2 | 6.68 | CC(C)n1nccc1C(=O)N[C@H](c1cn2ncc([C@H](NC(=O)CO[C@H](C)C(F)(F)F)C3CC3)cc2n1)C1CCC(F)(F)CC1 (single isomer, unassigned) [Example 311] | 6.48 | –
3 | 7.21 | Cc1nonc1C(=O)N[C@H](c1cn2ncc([C@H](NC(=O)CC3CC(F)(F)C3(F)F)C3CC3)cc2n1)C1CCC(F)(F)CC1 (single isomer, unassigned) [Example 324, N—((S)-(7-((R)-Cyclopropyl(2-((R*)-2,2,3,3-tetrafluorocyclobutyl)acetamido)methyl)imidazo[1,2-b]pyridazin-2-yl)(4,4-difluorocyclohexyl)methyl)-4-methyl-1,2,5-oxadiazole-3-carboxamide] | 6.52 | –
4 | 7.04 | Cc1nonc1C(=O)N[C@H](c1cn2ncc([C@H](NC(=O)CC3CC(F)(F)C3(F)F)C3CC3)cc2n1)C1CCC(F)(F)CC1 (single isomer, unassigned) [Example 325, N—((S)-(7-((R)-Cyclopropyl(2-((S*)-2,2,3,3-tetrafluorocyclobutyl)acetamido)methyl)imidazo[1,2-b]pyridazin-2-yl)(4,4-difluorocyclohexyl)methyl)-4-methyl-1,2,5-oxadiazole-3-carboxamide] | – | 6.52
5 | 6.03 | Cc1nonc1C(=O)N[C@H](c1cn2ncc([C@H](NC(=O)C(C)CC(F)F)C3CC3)cc2n1)C1CCC(F)(F)CC1 (single isomer, unassigned) [Example 329, N—((S)-(7-((R)-Cyclopropyl((S*)-4,4-difluoro-2-methylbutanamido)methyl)imidazo[1,2-b]pyridazin-2-yl)(4,4-difluorocyclohexyl)methyl)-4-methyl-1,2,5-oxadiazole-3-carboxamide] | 5.66 | –
6 | 6.25 | Cc1nonc1C(=O)N[C@H](c1cn2ncc([C@H](NC(=O)C(C)CC(F)F)C3CC3)cc2n1)C1CCC(F)(F)CC1 (single isomer, unassigned) [Example 330, N—((S)-(7-((R)-Cyclopropyl((R*)-4,4-difluoro-2-methylbutanamido)methyl)imidazo[1,2-b]pyridazin-2-yl)(4,4-difluorocyclohexyl)methyl)-4-methyl-1,2,5-oxadiazole-3-carboxamide] | – | 5.66
7 | 6.51 | Cc1nonc1C(=O)N[C@H](c1cn2ncc([C@H](NC(=O)C(F)C3CC3)C3CC3)cc2n1)C1CCC(F)(F)CC1 (single isomer, unassigned) [Example 331, N—((S)-(7-((R)-Cyclopropyl((R*)-2-cyclopropyl-2-fluoroacetamido)methyl)imidazo[1,2-b]pyridazin-2-yl)(4,4-difluorocyclohexyl)methyl)-4-methyl-1,2,5-oxadiazole-3-carboxamide] | – | 5.82
8 | 5.82 | Cc1nonc1C(=O)N[C@H](c1cn2ncc([C@H](NC(=O)C(F)C3CC3)C3CC3)cc2n1)C1CCC(F)(F)CC1 (single isomer, unassigned) [Example 332, N—((S)-(7-((R)-Cyclopropyl((S*)-2-cyclopropyl-2-fluoroacetamido)methyl)imidazo[1,2-b]pyridazin-2-yl)(4,4-difluorocyclohexyl)methyl)-4-methyl-1,2,5-oxadiazole-3-carboxamide] | – | 4.92
9 | 6.47 | CCC(CC(=O)N[C@@H](c1cnn2cc([C@@H](NC(=O)c3nonc3C)C3CCC(F)(F)CC3)nc2c1)C1CC1)CC(F)(F)F (single isomer, unassigned) [Example 342, N—((S)-(7-((R)-Cyclopropyl((R*)-3-ethyl-5,5,5-trifluoropentanamido)methyl)imidazo[1,2-b]pyridazin-2-yl)(4,4-difluorocyclohexyl)methyl)-4-methyl-1,2,5-oxadiazole-3-carboxamide] | – | 5.85
10 | 6.77 | CCC(CC(=O)N[C@@H](c1cnn2cc([C@@H](NC(=O)c3nonc3C)C3CCC(F)(F)CC3)nc2c1)C1CC1)CC(F)(F)F (single isomer, unassigned) [Example 343, N—((S)-(7-((R)-Cyclopropyl((S*)-3-ethyl-5,5,5-trifluoropentanamido)methyl)imidazo[1,2-b]pyridazin-2-yl)(4,4-difluorocyclohexyl)methyl)-4-methyl-1,2,5-oxadiazole-3-carboxamide] | – | 6.37
11 | 7.28 | Cc1nonc1C(=O)N[C@H](c1cn2ncc([C@H](NC(=O)C(F)CC3CC3)C3CC3)cc2n1)C1CCC(F)(F)CC1 (single isomer, unassigned) [Example 344, N—((S)-(7-((R)-Cyclopropyl((R*)-3-cyclopropyl-2-fluoropropanamido)methyl)imidazo[1,2-b]pyridazin-2-yl)(4,4-difluorocyclohexyl)methyl)-4-methyl-1,2,5-oxadiazole-3-carboxamide] | – | 6.64
12 | 6.74 | Cc1nonc1C(=O)N[C@H](c1cn2ncc([C@H](NC(=O)C(F)CC3CC3)C3CC3)cc2n1)C1CCC(F)(F)CC1 (single isomer, unassigned) [Example 345, N—((S)-(7-((R)-Cyclopropyl((S*)-3-cyclopropyl-2-fluoropropanamido)methyl)imidazo[1,2-b]pyridazin-2-yl)(4,4-difluorocyclohexyl)methyl)-4-methyl-1,2,5-oxadiazole-3-carboxamide] | – | 6.17
13 | 6.82 | Cc1nonc1C(=O)N[C@H](c1cn2ncc([C@H](NC(=O)C(C)CC(F)(F)F)C3CC3)cc2n1)C1CCC(F)(F)CC1 (single isomer, unassigned) [Example 346, N—((S)-(7-((R)-Cyclopropyl((R*)-4,4,4-trifluoro-2-methylbutanamido)methyl)imidazo[1,2-b]pyridazin-2-yl)(4,4-difluorocyclohexyl)methyl)-4-methyl-1,2,5-oxadiazole-3-carboxamide] | – | 6.36
14 | 6.33 | Cc1nonc1C(=O)N[C@H](c1cn2ncc([C@H](NC(=O)C(C)CC(F)(F)F)C3CC3)cc2n1)C1CCC(F)(F)CC1 (single isomer, unassigned) [Example 347, N—((S)-(7-((R)-Cyclopropyl((S*)-4,4,4-trifluoro-2-methylbutanamido)methyl)imidazo[1,2-b]pyridazin-2-yl)(4,4-difluorocyclohexyl)methyl)-4-methyl-1,2,5-oxadiazole-3-carboxamide] | – | 5.80
15 | 7.16 | Cc1nonc1C(=O)N[C@H](c1cn2ncc([C@H](NC(=O)C(F)C3CCC3)C3CC3)cc2n1)C1CCC(F)(F)CC1 (single isomer, unassigned) [Example 348, N—((S)-(7-((R)-((R*)-2-Cyclobutyl-2-fluoroacetamido)(cyclopropyl)methyl)imidazo[1,2-b]pyridazin-2-yl)(4,4-difluorocyclohexyl)methyl)-4-methyl-1,2,5-oxadiazole-3-carboxamide] | – | 6.66
16 | 6.38 | Cc1nonc1C(=O)N[C@H](c1cn2ncc([C@H](NC(=O)C(F)C3CCC3)C3CC3)cc2n1)C1CCC(F)(F)CC1 (single isomer, unassigned) [Example 349, N—((S)-(7-((R)-((S*)-2-Cyclobutyl-2-fluoroacetamido)(cyclopropyl)methyl)imidazo[1,2-b]pyridazin-2-yl)(4,4-difluorocyclohexyl)methyl)-4-methyl-1,2,5-oxadiazole-3-carboxamide] | – | 5.77

Row | SMILES | pIC50 [1] | pIC50 ([2]; Homo sapiens, Keratinocyte) | pIC50 [2]
17 | Cc1nonc1C(=O)N[C@@H](COC(C)(C)C)c1cn2ncc(C(NC(=O)CCC(F)(F)F)C3CC3)cc2n1 (single isomer, unassigned) [Example 314, N—((R)-2-(tert-Butoxy)-1-(7-((R*)-cyclopropyl(4,4,4-trifluorobutanamido)methyl)imidazo[1,2-b]pyridazin-2-yl)ethyl)-4-methyl-1,2,5-oxadiazole-3-carboxamide] | 6.25 | – | 5.68
18 | Cc1nonc1C(=O)N[C@@H](COC(C)(C)C)c1cn2ncc(C(NC(=O)CCC(F)(F)F)C3CC3)cc2n1 (single isomer, unassigned) [Example 315, N—((R)-2-(tert-Butoxy)-1-(7-((S*)-cyclopropyl(4,4,4-trifluorobutanamido)methyl)imidazo[1,2-b]pyridazin-2-yl)ethyl)-4-methyl-1,2,5-oxadiazole-3-carboxamide] | 4.89 | – | < 4.70
19 | CC(C)n1nccc1C(=O)N[C@@H](COC(C)(C)C)c1cn2ncc(C(NC(=O)CCC(F)(F)F)C3CC3)cc2n1 (single isomer, unassigned) [Example 316, N—((R)-2-(tert-Butoxy)-1-(7-((R*)-cyclopropyl(4,4,4-trifluorobutanamido)methyl)imidazo[1,2-b]pyridazin-2-yl)ethyl)-1-isopropyl-1H-pyrazole-5-carboxamide] | 6.62 | – | 6.15
20 | CC(C)n1nccc1C(=O)N[C@@H](COC(C)(C)C)c1cn2ncc(C(NC(=O)CCC(F)(F)F)C3CC3)cc2n1 (single isomer, unassigned) [Example 317, N—((R)-2-(tert-Butoxy)-1-(7-((S*)-cyclopropyl(4,4,4-trifluorobutanamido)methyl)imidazo[1,2-b]pyridazin-2-yl)ethyl)-1-isopropyl-1H-pyrazole-5-carboxamide] | 5.00 | – | < 4.70
